Among the data in US9079901B2, “Fused heterocyclic compounds as ion channel modulators” (Gilead Sciences, Inc., priority 2010, dated 2015) are inhibition values, retold here.

For this assay, the target named is wild-type human cardiac sodium channel, hNav1.5 (late sodium current) in HEK293 cells (Homo sapiens, UniProt Q14524). Kind of assay: Late INa screening assay (automated whole-cell patch clamp, PatchXpress). The conditions noted are these: HEK293, compound at 1 μM; late INa generated with 10 μM Tefluthrin (or 50 nM ATX II); HEK293 hNav1.5; read-out: Late INa 1 μM (percent block of late INa). It counts as cell-based. As for the experimental part:
The late sodium current (Late INa) and peak sodium current (Peak INa) assays are performed on an automated electrophysiology platform, PatchXpress 7000A (MDS Analytical Technologies, Sunnyvale, Calif.), which uses the whole cell patch clamp technique to measure currents through the cell membrane of up to 16 cells at a time. The assay uses an HEK293 (human embryonic kidney) cell line heterologously expressing the wild-type human cardiac sodium channel, hNav1.5, purchased from Millipore (Billerica, Mass.). No beta subunits were coexpressed with the Na channel alpha subunit. Cells are maintained with standard tissue culture procedures and stable channel expression is maintained with 400 μg/ml Geneticin in the culture medium. Cells isolated for use on PatchXpress are incubated for 5 minutes in Versene 1× and then for 2 minutes in 0.0125% Trypsin-EDTA (both at 37° C.) to ensure that 80-90% of the cells are single and not part of a cell cluster. Experiments are carried out at 24-27° C.
For both the Late INa and Peak INa assays, series resistance compensation is set to 50% and whole-cell compensation is performed automatically. Currents are low-pass filtered at 10 kHz and digitized at 31.25 kHz. Currents through open sodium channels are automatically recorded and stored in the DataXpress2 database (MDS Analytical Technologies, Sunnyvale, Calif.). Analysis is performed using DataXpress2 analysis software and data are compiled in Excel.
Compound stocks are routinely made in glass vials to 10 mM in dimethyl sulfoxide (DMSO). In some cases, when compounds are not soluble in DMSO, they are made in 100% ethanol. Stocks are sonicated as necessary. The extracellular solution for screening Late INa is composed of: 140 mM NaCl, 4 mM KCl, 1.8 mM CaCl2, 0.75 mM MgCl2, and 5 mM HEPES with pH adjusted to 7.4 using NaOH. The extracellular solution for screening Peak INa is composed of: 20 mM NaCl, 120 mM N-methyl-D glucamine, 4 mM KCl, 1.8 mM CaCl2, 0.75 mM MgCl2, and 5 mM HEPES with pH adjusted to 7.4 using HCl. The intracellular solution used to perfuse the inside of the cells for both the Late INa and Peak INa assays contains: 120 mM CsF, 20 mM CsCl, 5 mM EGTA, 5 mM HEPES and pH adjusted to 7.4 with CsOH. Compounds are diluted in extracellular solution to 10 μM in glass vials and then transferred to glass well plates before robotic addition to the cells. The 0Na extracellular solution used at the end of each experiment for the Late INa and Peak INa assays to measure baseline current contains: 140 mM N-methyl-D-glucamine; 4 mM KCl; 1.8 mM CaCl2; 0.75 mM MgCl2; 5 mM HEPES and pH was adjusted to 7.4 with HCl.
For the Late INa assay, sodium channels are activated every 10 seconds (0.1 Hz) by depolarizing the cell membrane to −20 mV for 250 milliseconds (ms) from a holding potential of −120 mV. In response to a −20 mV voltage step, typical Nav1.5 sodium currents activate rapidly to a peak negative current and then inactivate nearly completely within 3-4 ms.
All compounds are tested to determine their activity in blocking the late sodium current. Late INa current is generated by adding 10 μM Tefluthrin (pyrethroid) to the extracellular solution while recording Na currents. For some experiments, 50 nM ATX II (sea anemone toxin), another late INa activator, was used to generate the late component. Both activators generate late components that are large enough that block of the late component by compounds can be measured easily. For the purposes of the screening, late INa is defined as the mean current between 225 ms and 250 ms after stepping to −20 mV to activate Na channels. After establishing the whole cell recording configuration, late INa activators are added to each well 4 times over a 16-17 minute period so that the late component of the Na current reaches a stable value. Compounds are then added (typically at 10 μM), in the presence of late INa activator, with 3 additions over the course of 7 or 8 minutes. […]

Sequence of wild-type human cardiac sodium channel, hNav1.5 (late sodium current) in HEK293 cells (Q14524 whole entry): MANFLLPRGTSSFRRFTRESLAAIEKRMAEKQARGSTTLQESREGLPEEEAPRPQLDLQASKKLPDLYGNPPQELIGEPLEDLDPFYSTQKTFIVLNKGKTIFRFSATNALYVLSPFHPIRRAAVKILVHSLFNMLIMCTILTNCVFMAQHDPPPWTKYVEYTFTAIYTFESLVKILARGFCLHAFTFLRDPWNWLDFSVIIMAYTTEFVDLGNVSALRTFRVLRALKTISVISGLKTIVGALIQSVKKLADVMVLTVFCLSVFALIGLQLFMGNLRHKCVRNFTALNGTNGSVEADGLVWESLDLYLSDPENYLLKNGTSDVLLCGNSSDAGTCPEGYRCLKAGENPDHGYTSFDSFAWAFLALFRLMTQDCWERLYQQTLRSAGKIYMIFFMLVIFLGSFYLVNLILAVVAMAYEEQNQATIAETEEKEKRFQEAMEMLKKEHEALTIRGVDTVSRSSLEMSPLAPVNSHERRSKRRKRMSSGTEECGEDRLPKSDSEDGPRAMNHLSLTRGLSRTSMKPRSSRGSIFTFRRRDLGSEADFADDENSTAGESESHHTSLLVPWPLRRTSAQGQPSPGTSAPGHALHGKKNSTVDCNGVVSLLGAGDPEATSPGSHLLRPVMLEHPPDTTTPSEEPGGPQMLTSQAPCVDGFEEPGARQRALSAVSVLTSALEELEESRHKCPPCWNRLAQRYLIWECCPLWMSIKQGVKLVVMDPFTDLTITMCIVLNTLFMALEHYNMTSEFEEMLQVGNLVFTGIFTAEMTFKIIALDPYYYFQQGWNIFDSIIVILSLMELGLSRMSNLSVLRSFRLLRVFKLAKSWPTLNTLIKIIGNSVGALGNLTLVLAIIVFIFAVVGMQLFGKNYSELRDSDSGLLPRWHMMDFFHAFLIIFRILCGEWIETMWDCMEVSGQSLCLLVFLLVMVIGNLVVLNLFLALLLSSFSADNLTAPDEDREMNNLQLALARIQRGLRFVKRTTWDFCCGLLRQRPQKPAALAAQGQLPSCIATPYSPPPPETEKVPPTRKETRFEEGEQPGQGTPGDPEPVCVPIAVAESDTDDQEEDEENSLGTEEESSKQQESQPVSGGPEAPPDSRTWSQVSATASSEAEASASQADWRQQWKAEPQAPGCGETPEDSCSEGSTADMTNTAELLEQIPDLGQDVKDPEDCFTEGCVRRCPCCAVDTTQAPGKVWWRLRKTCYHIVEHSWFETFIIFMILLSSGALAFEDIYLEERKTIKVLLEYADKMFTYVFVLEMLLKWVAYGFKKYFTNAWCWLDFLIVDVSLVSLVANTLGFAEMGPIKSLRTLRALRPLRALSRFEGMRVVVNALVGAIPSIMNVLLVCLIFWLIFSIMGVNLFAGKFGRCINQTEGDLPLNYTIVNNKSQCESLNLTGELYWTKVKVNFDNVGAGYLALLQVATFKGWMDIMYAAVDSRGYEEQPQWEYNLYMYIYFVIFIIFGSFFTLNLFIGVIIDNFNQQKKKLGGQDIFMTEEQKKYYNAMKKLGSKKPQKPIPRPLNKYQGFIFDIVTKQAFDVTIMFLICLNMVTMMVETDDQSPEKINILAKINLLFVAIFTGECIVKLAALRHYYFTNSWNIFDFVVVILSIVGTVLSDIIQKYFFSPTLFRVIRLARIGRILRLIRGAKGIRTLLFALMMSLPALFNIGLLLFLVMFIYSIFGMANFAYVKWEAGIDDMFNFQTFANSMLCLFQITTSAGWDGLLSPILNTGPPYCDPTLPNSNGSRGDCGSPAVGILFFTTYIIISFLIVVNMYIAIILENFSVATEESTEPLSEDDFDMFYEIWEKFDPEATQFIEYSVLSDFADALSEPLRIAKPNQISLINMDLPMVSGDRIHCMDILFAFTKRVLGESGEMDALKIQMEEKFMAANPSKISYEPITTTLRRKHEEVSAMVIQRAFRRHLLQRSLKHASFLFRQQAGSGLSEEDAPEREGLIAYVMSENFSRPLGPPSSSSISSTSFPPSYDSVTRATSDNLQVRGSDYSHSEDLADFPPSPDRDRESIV

`O=c1n(CCCOc2ccccc2)nc2ccc(-c3ccc(OC(F)(F)F)cc3)cn12` [compound 24, 2-(3-phenoxypropyl)-6-(4-(trifluoromethoxy)phenyl)-[1,2,4]triazolo[4,3-a]pyridin-3(2H)-one]: the inhibition at 1 µM was found to be 25%. Regarding `Cc1cnc(Cn2nc3ccc(-c4ccc(OC(F)(F)F)cc4)cn3c2=O)o1` [compound 25, 2-((5-methyloxazol-2-yl)methyl)-6-(4-(trifluoromethoxy)phenyl)-[1,2,4]triazolo[4,3-a]pyridin-3(2H)-one], the inhibition at 1 µM was found to be 30.3%.

With `Cn1nc(C2CC2)cc1Cn1nc2ccc(-c3ccc(OC(F)(F)F)cc3)cn2c1=O` [compound 26, 2-((3-cyclopropyl-1-methyl-1H-pyrazol-5-yl)methyl)-6-(4-(trifluoromethoxy)phenyl)-[1,2,4]triazolo[4,3-a]pyridin-3(2H)-one], the inhibition at 1 µM came to 19.3%. On to `O=c1n(Cc2ncon2)nc2ccc(-c3ccc(OC(F)(F)F)cc3)cn12` [compound 27, 2-((1,2,4-oxadiazol-3-yl)methyl)-6-(4-(trifluoromethoxy)phenyl)-[1,2,4]triazolo[4,3-a]pyridin-3(2H)-one], for which the inhibition at 1 µM came to 11.2%.

With `O=c1n(CCOc2ccccc2)nc2ccc(-c3ccc(OC(F)(F)F)cc3)cn12` [compound 28, 2-(2-phenoxyethyl)-6-(4-(trifluoromethoxy)phenyl)-[1,2,4]triazolo[4,3-a]pyridin-3(2H)-one], the inhibition at 1 µM was determined as 46.3%. To `O=c1n(Cc2nc(Cc3ccccc3)no2)nc2ccc(-c3ccc(OC(F)(F)F)cc3)cn12` [compound 29, 2-((3-benzyl-1,2,4-oxadiazol-5-yl)methyl)-6-(4-(trifluoromethoxy)phenyl)-[1,2,4]triazolo[4,3-a]pyridin-3(2H)-one] belongs 27.2%. On to `COc1c(-c2ccc(OC(F)(F)F)cc2)ccc2nn(Cc3nc(C)no3)c(=O)n12` [compound 30, 5-methoxy-2-((3-methyl-1,2,4-oxadiazol-5-yl)methyl)-6-(4-(trifluoromethoxy)phenyl)-[1,2,4]triazolo[4,3-a]pyridin-3(2H)-one], for which the inhibition at 1 µM amounted to 18.2%. Turning to `Cc1nc(Cn2nc3ccc(-c4cccc(Oc5ccccc5)c4)cn3c2=O)no1` [compound 31, 2-((5-methyl-1,2,4-oxadiazol-3-yl)methyl)-6-(3-phenoxyphenyl)-[1,2,4]triazolo[4,3-a]pyridin-3(2H)-one], the inhibition at 1 µM amounted to 24.4%. `Cc1nc(Cn2nc3ccc(-c4ccc(Oc5ccc(Cl)cc5)cc4)cn3c2=O)no1` [compound 32, 6-(4-(4-chlorophenoxy)phenyl)-2-((5-methyl-1,2,4-oxadiazol-3-yl)methyl)-[1,2,4]triazolo[4,3-a]pyridin-3(2H)-one]: the inhibition at 1 µM was found to be 68.5%. To `O=c1n(Cc2nc(-c3ccccc3Cl)no2)nc2ccc(-c3ccc(OC(F)(F)F)cc3)cn12` [compound 33, 2-((3-(2-chlorophenyl)-1,2,4-oxadiazol-5-yl)methyl)-6-(4-(trifluoromethoxy)phenyl)-[1,2,4]triazolo[4,3-a]pyridin-3(2H)-one] belongs 20.5%. To `O=c1n(-c2ccccn2)nc2ccc(-c3ccc(OC(F)(F)F)cc3)cn12` [compound 34, 2-(pyridin-2-yl)-6-(4-(trifluoromethoxy)phenyl)-[1,2,4]triazolo[4,3-a]pyridin-3(2H)-one] belongs 26%.

On to `O=c1n(CCn2cccn2)nc2ccc(-c3ccc(OC(F)(F)F)cc3)cn12` [compound 35, 2-(2-(1H-pyrazol-1-yl)ethyl)-6-(4-(trifluoromethoxy)phenyl)-[1,2,4]triazolo[4,3-a]pyridin-3(2H)-one], for which the inhibition at 1 µM worked out at 12.2%. As to `O=c1n(CCc2ccccn2)nc2ccc(-c3ccc(OC(F)(F)F)cc3)cn12` [compound 36, 2-(2-(pyridin-2-yl)ethyl)-6-(4-(trifluoromethoxy)phenyl)-[1,2,4]triazolo[4,3-a]pyridin-3(2H)-one], the inhibition at 1 µM is 48.4%.

As to `COc1ccccc1OCCCn1nc2ccc(-c3ccc(OC(F)(F)F)cc3)cn2c1=O` [compound 37, 2-(3-(2-methoxyphenoxy)propyl)-6-(4-(trifluoromethoxy)phenyl)-[1,2,4]triazolo[4,3-a]pyridin-3(2H)-one], the inhibition at 1 µM was found to be 34.5%. To `O=c1n(CC(O)COc2ccc(Cl)cc2)nc2ccc(-c3ccc(OC(F)(F)F)cc3)cn12` (stereo not drawn) [compound 38, 2-(3-(4-chlorophenoxy)-2-hydroxypropyl)-6-(4-(trifluoromethoxy)phenyl)-[1,2,4]triazolo[4,3-a]pyridin-3(2H)-one] belongs 10.8%; to `O=c1n(CCN2CCC(Oc3ccccc3)C2)nc2ccc(-c3ccc(OC(F)(F)F)cc3)cn12` (stereo not drawn) [compound 39, 2-(2-(3-phenoxypyrrolidin-1-yl)ethyl)-6-(4-(trifluoromethoxy)phenyl)-[1,2,4]triazolo[4,3-a]pyridin-3(2H)-one], 45.4%; to `O=c1n(CCOc2ccc(Cl)cc2)nc2ccc(-c3ccc(OC(F)(F)F)cc3)cn12` [compound 40, 2-(2-(4-chlorophenoxy)ethyl)-6-(4-(trifluoromethoxy)phenyl)-[1,2,4]triazolo[4,3-a]pyridin-3(2H)-one], 34.3%. With `O=c1n(CCn2cc(Cl)cn2)nc2ccc(-c3ccc(OC(F)(F)F)cc3)cn12` [compound 41, 2-(2-(4-chloro-1H-pyrazol-1-yl)ethyl)-6-(4-(trifluoromethoxy)phenyl)-[1,2,4]triazolo[4,3-a]pyridin-3(2H)-one], the inhibition at 1 µM amounted to 12.2%. Regarding `Cc1ccn(CCn2nc3ccc(-c4ccc(OC(F)(F)F)cc4)cn3c2=O)n1` [compound 42, 2-(2-(3-methyl-1H-pyrazol-1-yl)ethyl)-6-(4-(trifluoromethoxy)phenyl)-[1,2,4]triazolo[4,3-a]pyridin-3(2H)-one], the inhibition at 1 µM came to 18.9%. To `O=c1n(CC(O)COc2ccccc2)nc2ccc(-c3ccc(OC(F)(F)F)cc3)cn12` (stereo not drawn) [compound 43, 2-(2-hydroxy-3-phenoxypropyl)-6-(4-(trifluoromethoxy)phenyl)-[1,2,4]triazolo[4,3-a]pyridin-3(2H)-one] belongs 19.3%; to `Cc1cccc(C)c1OCCn1nc2ccc(-c3ccc(OC(F)(F)F)cc3)cn2c1=O` [compound 44, 2-(2-(2,6-dimethylphenoxy)ethyl)-6-(4-(trifluoromethoxy)phenyl)-[1,2,4]triazolo[4,3-a]pyridin-3(2H)-one], 43.1%; to `O=c1n(CCn2cnc(-c3ccccc3)c2)nc2ccc(-c3ccc(OC(F)(F)F)cc3)cn12` [compound 45, 2-(2-(4-phenyl-1H-imidazol-1-yl)ethyl)-6-(4-(trifluoromethoxy)phenyl)-[1,2,4]triazolo[4,3-a]pyridin-3(2H)-one], 11.8%. The same measure for `O=c1n(CCOc2ccccc2Cl)nc2ccc(-c3ccc(OC(F)(F)F)cc3)cn12` [compound 46, 2-(2-(2-chlorophenoxy)ethyl)-6-(4-(trifluoromethoxy)phenyl)-[1,2,4]triazolo[4,3-a]pyridin-3(2H)-one]: 43.2%; for `O=c1n(CCOc2ncccc2C(F)(F)F)nc2ccc(-c3ccc(OC(F)(F)F)cc3)cn12` [compound 47, 6-(4-(trifluoromethoxy)phenyl)-2-(2-(3-(trifluoromethyl)pyridin-2-yloxy)ethyl)-[1,2,4]triazolo[4,3-a]pyridin-3(2H)-one]: 43.6%.
